pKi: −log10 of the molar value. “Also recorded” adds a separate entry of the source. Where a SMILES comes first, the peptide text is derived from it. The star is where a group is joined. Boc = CC(C)(C)OC(=O)*; CH2Cl = ClC*
Columns and labels:
[1] = tested on: hippocampal slices; assay: Hippocampal slice survival after 10 min anoxia (Example 7A); type: cell-based, rat
Protocol: Hippocampal slices (400 um) were prepared from Sprague Dawley rats (6 to 7 weeks) and maintained in an interface chamber at 35° C. using conventional techniques, i.e., the lower surface of the slice received a constant perfusion (0.5 ml/min) of ACSF, while the upper surface was exposed to a moist atmosphere of O2 :CO2 (95%:5%) exchanged at a rate of 2 L/min. The ACSF medium contains (in mM): NaCl (124), KCl (3), KHPO4 (2.5), CaCl (3.4), NaHCO3 (26) and D-Glucose (10). Field excitatory post-synaptic responses were recorded from stratum radiatum of CAlb in response to stimulation of Schaffer-commissural fibers in CAla or CAlc. The depth of the recording electrode was optimized and evoked responses were collected at a rate of one evoked response every 30 seconds.
For the initial screening procedure, 14 to 16 slices are harvested from the hippocampus of a single rat and placed in a common ACSF bath. Each slice is tested in sequence to determine the magnitude of its pre-anoxic evoked response. Five stimulation pulses (each 0.1 ms (millisecond) in duration) were presented over a 15 second interval. The largest evoked response was noted and recorded for each slice.
After the one hour drug incubation period, the oxygen-enriched atmosphere of the chamber was made anoxic by substituting nitrogen for oxygen (N2 =95%; CO^2 =5%). The slices were retained in this anoxic environment for 10 minutes, following which the oxygen-enriched atmosphere (O^2 =95%; CO2 =5%) was reestablished.
The slices were given the opportunity to recover for 30 minutes following reoxygenation whereupon each was stimulated and the maximum evoked potential determined, as described above during the pre-anoxia period. Those slices which, after anoxia, produced a maximum evoked potential of greater than 50% of that observed prior to anoxia were defined as surviving slices.

[2] = tested on: hippocampal slices; assay: Hippocampal slice evoked potential recovery after anoxia (Example 7B); type: cell-based, rat
Protocol: As in Example 7A, hippocampal slices (400 μm) were prepared from Sprague Dawley rats (6-7 weeks) and maintained in an interface chamber at 35° C. using conventional techniques, i.e. the lower surface of the slice received a constant perfusion (0.5 ml/min) of an artificial cerebrospinal fluid (ACSF), while the upper surface was exposed to a moist atmosphere of O2 :CO2 (95%:5%) exchanged at a rate of 2 L/min. The ACSF medium contains (in mM): NaCl (124), KCl (3), KHPO4 (1.25), MgSO4 (2.5), CaCl2 (3.4), NaHCO3 (26) and D-Glucose (10). Field excitatory post-synaptic responses were recorded from stratum radiatum of CA1b in response to stimulation of Schaffer-commissural fibers in CA1a or CA1c. The depth of the recording electrode was optimized and evoked responses were collected at a rate of one evoked response every 30 seconds.
After establishing a stable baseline of evoked responses (approximately 10 minutes), ACSF containing Calpain Inhibitor was washed into the chamber and slices were incubated for a period of one hour. After incubation, evoked responses were again recorded and the change in the amplitude of the responses from baseline levels was noted. No effect of the inhibitors tested on baseline evoked responses was observed.
For anoxia experiments, incubation in the drug-containing medium was followed by replacement of the O2 :CO2 (95%:5%) atmosphere with N2 :CO2 (95%:5%). Slices were exposed to this anoxic environment until disappearance of the pre-synaptic fiber volley and for two minutes (severe anoxia) longer (total time in anoxic environment approximately 7-8 minutes in control case). Effects of Calpain Inhibitors on the functional recovery of the slices after the anoxic episode were then measured. Recovery of the evoked potential (EPSP) slope and amplitude by the drug treated slices can be compared to control slices to determine the relative efficacy of various Calpain Inhibitors.

[3] = target: calpain II from rabbit; assay: Calpain II inhibition, Suc-Leu-Tyr-AMC (Table PKC1); type: biochemical; settings: 20 mM Hepes, 10 mM CaCl2, 10 mM β-mercaptoethanol, pH 7.2; read-out: Ki CII (Calpain II)
Protocol: (§1) Our discovery of Peptide Keto-Compounds effective as Calpain Inhibitors was made through assay of the Peptide Keto-Compounds as reversible inhibitors. Various concentrations of inhibitors in dimethylsulfoxide (DMSO) were added to the assay mixture, which contained buffer and substrate. The reaction was started by the addition of the enzyme and the hydrolysis rates were followed spectrophotometrically or fluorimetrically. 88 mM KH2 PO4, 12 mM Na2 HPO4, 1.33 mM EDTA, 2.7 mM cysteine, pH 6.0 was used as a buffer for cathepsin B; and 20 mM Hepes, 10 mM CaCl2, 10 mM β-mercaptoethanol, pH 7.2 buffer was utilized for calpain I and calpain II.
(§2) All peptide thioester hydrolysis rates were measured with assay mixtures containing 4,4'-dithiodipyridine [e324=19800 M-1 cm-1; Grasetti & Murray, Arch. Biochem. Biophys. 119, pp 41-49 (1967)]. Papain was assayed with Bz-Arg-AMC or Bz-Arg-NA [Kanaoka et al., Chem. Pharm. Bull. 25, 3126-3128 (1977)], and the AMC (7-amino-4-methylcoumarin) release was followed fluorimetrically (excitation at 380 nm, and emission at 460 nm). Cathepsin B was assayed with Z-Arg-Arg-AFC [Barrett and Kirschke, Methods Enzymol. 80, 535-561 (1981)], and the AFC (7-amino-4-trifluoromethylcoumarin) release was followed fluorimetrically (excitation at 400 nm, and emission at 505 nm). Calpain I from human erythrocytes and calpain II from rabbit were assayed using Suc-Leu-Tyr-AMC [Sasaki et al., J. Biol. Chem. 259, 12489-12494 (1984), hereby incorporated by reference], and the AMC (7-amino-4-methylcoumarin) release was followed fluorimetrically (excitation at 380 nm, and emission at 460 nm). Enzymatic hydrolysis rates were measured at various substrate and inhibitor concentrations, and Ki values were determined by Dixon plot.

[4] = Stability in plasma; type: in vitro ADME; settings: unit assumed
Description: We determined the haft-life of several Peptide Keto-Compounds in both plasma and liver homogenates.

[5] = target: PP Elastase (Sus scrofa, UniProt P00772); assay: PP Elastase KI (Table 1B(ii)); type: biochemical
Description: (§3) We tested the ability of an additional group of Peptide Keto-Compounds to inhibit several proteases in order to evaluate their specificity for Calpain.

[6] = target: Calpain II; assay: Calpain II KI (Table 1B(ii)); type: biochemical
Description: as §3

[7] = target: Cathepsin B (Bos taurus, UniProt P07688); assay: Cathepsin B inhibition, Z-Arg-Arg-AFC (Table PKC1); type: biochemical; settings: pH 6.0 phosphate buffer, substrate Z-Arg-Arg-AFC; read-out: Ki CB (Cathepsin B)
Protocol: as §1, with “Various” for “Our discovery of Peptide Keto-Compounds effective as Calpain Inhibitors was made through assay of the Peptide Keto-Compounds as reversible inhibitors. Various”
as §2

[8] = Concentration 100, ten minutes anoxia

PP Elastase, sequence (P00772 27-266): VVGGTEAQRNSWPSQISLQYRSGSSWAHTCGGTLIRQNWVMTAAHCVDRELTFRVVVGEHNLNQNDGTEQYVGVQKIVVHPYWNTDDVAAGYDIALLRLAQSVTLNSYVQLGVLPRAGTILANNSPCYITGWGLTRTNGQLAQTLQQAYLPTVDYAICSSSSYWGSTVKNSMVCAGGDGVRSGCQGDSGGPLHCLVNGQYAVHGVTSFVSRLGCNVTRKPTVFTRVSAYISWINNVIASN

**Q.** With `N=C(N)SCCCOc1oc(=O)c2cc(N)ccc2c1Cl` [NH2 -CiTPrOIC (ACITIC), 7-amino-4-chloro-3-(3-isothiureidopropoxy)isocoumarin] as the compound, how does the “Survival of slices after ten minutes anoxia” value (shortened to “Survival of slices”) ([1]; Dose 20 μM, incubation 1 hour) read?
**A.** The value was 50%.

**Q.** What about the “% Recovery of synaptic transmission after anoxia” value (from here on “% Recovery”) ([2]; Concentration 20, ten minutes anoxia) of the same compound?
**A.** The value was 60%.

**Q.** With `CCOC(=O)C(=O)C(Cc1ccccc1)NC(=O)C(CC(C)C)NC(=O)OCc1ccccc1` (stereo not drawn) [Z-Leu-Phe-COOEt] as the compound, how does the pKi [3] read?
**A.** Its pKi is 6.40.

**Q.** What about the t1/2 plasma [4] of the same compound?
**A.** The t1/2 plasma was 7.8 min.

**Q.** What about the pKi [5] of the same compound?
**A.** The pKi was under 4.00.

**Q.** And the pKi [6]?
**A.** The pKi was 6.40.

**Q.** What about the “% Recovery” value [2, 8] of the same compound?
**A.** Its value is 38%.

**Q.** And the “period of anoxia required to produce fiber volley disappearance (FIG. 6)” value ([2]; hippocampal slices)?
**A.** Its value is “substantially lengthens the period of exposure to anoxia required to produce FVD”.

**Q.** With `CCOC(=O)C(=O)C(CC)NC(=O)[C@H](C)NC(=O)[C@H](C)NC(=O)OCc1ccccc1` (mixture of isomers) [Z-Ala-Ala-DL-Abu-COOEt, Z-Ala-Ala-DL-Abu-CO2 Et] as the compound, how does the pKi [7] read?
**A.** The pKi was 5.00.

**Q.** What about the pKi [3] of the same compound?
**A.** Its pKi is 3.70.

**Q.** With `CCC(NC(=O)[C@@H]1CCCN1C(=O)[C@H](C)NC(=O)[C@H](C)NC(=O)CCC(=O)OC)C(=O)C(=O)OC` (mixture of isomers) [MeO-Suc-Ala-Ala-Pro-Abu-COOMe, MeO-Suc-Ala-Ala-Pro-DL-Abu-CO2 Me] as the compound, how does the pKi [7] read?
**A.** The pKi was 5.22.

**Q.** For `CC(=O)N[C@@H](CC(C)C)C(=O)N[C@@H](CC(C)C)C(=O)N[C@H](C=O)CCCNC(=N)N` [Leupeptin, Ac-Leu-Leu-Arg-H, reference compound], which “Survival of slices” value ([1]; Dose 1000 μM, incubation 3 hours) is on record?
**A.** Its value is 50%.

**Q.** What does the source list for `CCOC(=O)C(=O)[C@H](CC)NC(=O)[C@H](CC(C)C)NC(=O)OCc1ccccc1` (racemic) [Z-Leu-Abu-COOEt, Z-Leu-DL-Abu-COOEt]?
**A.** pKi [3]: 6.40; protection of slices from anoxia (FIG. 3) ([1]; 10 minutes anoxic atmosphere, listed as CX218): protected from the effects of anoxia; also recorded: significantly more effective; Survival of slices after ten minutes anoxia ([1]; Dose 100 μM, incubation 1 hour): 70%; t1/2 plasma [4]: 2.8 min; pKi [5]: < 4.00; pKi [6]: 6.40; % Recovery of synaptic transmission after anoxia [2, 8]: 55%; recovery of EPSP amplitude from severe anoxia (FIG. 4) ([2]; severe anoxia, 2 minutes post fiber volley disappearance): superior to that seen with CI1

**Q.** Which “Survival of slices” value ([1]; Dose 50 μM, incubation 1 hour) does the source give for `CC(C)CC(NC(=O)CNC(=O)OC(C)(C)C)C(=O)NC(Cc1ccccc1)C(=O)CCl` (stereo not drawn) [Boc-Gly-Leu-Phe-CH2 Cl] (Boc-Gly-Leu-Phe-CH2Cl; configuration not given here) here?
**A.** The value was 50%.

**Q.** What about the “% Recovery” value ([2]; Concentration 50, ten minutes anoxia) of the same compound?
**A.** The value was 30%.

**Q.** What does the source list for `CCCC(NC(=O)[C@H](CC(C)C)NC(=O)OCc1ccccc1)C(=O)C(=O)OCC` (mixture of isomers) [Z-Leu-Nva-COOEt, Z-Leu-DL-Nva-COOEt]?
**A.** pKi [7]: 4.52; pKi [3]: 5.92; t1/2 plasma [4]: 2.8 min; pKi [5]: 5.64; pKi [6]: 5.92

**Q.** What does the source list for `CCCCC(NC(=O)C(CC(C)C)NC(=O)OCc1ccccc1)C(=O)C(=O)OCC` (stereo not drawn) [Z-Leu-Nle-COOEt, Z-Leu-NLeu-CO2 Et]?
**A.** pKi [3]: 6.74; t1/2 plasma [4]: 3.7 min; pKi [5]: 5.66; pKi [6]: 6.74

Source: patent US5444042A, “Method of treatment of neurodegeneration with calpain inhibitors” (Cortex Pharmaceuticals, priority 1994, dated 1995)
